Assay results reported in US8680012B2, “4-phenyl-pyrane-3,5-diones,4-phenyl-thiopyrane-3,6-diones and cyclohexanetriones as novel herbicides” (Syngenta Crop Protection LLC, priority 2006, dated 2014).

The molecules below were run on Avena fatua (AVEFA) (assay: Example B post-emergence herbicidal activity, glasshouse pot test). Settings: 312 h, rate 250 g/ha, evaluated after 13 days, read-out: Post-emergence activity AVEFA (100=total damage to plant; 0=no damage to plant).
Format: in vivo
How it was run: (§1)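 Herbicidal effect was judged 13 days after treatment as percent-style damage (100 = total kill). Seeds in standard soil had grown 1 day (pre) or 8 days (post) in a 24/16 °C, 14 h light, 65% humidity glasshouse before spraying with compound in acetone/water (50:50) containing 0.5% Tween 20.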

Row | Structure (SMILES) | pest or weed control at 250 g/ha [%]
1 | CCc1ccc(-c2ccc(Cl)cc2)cc1C1=C(O)[C@@]2(CC)CC[C@H](O2)C1=O [Compound A-79] | 50
2 | CCc1ccc(-c2ccc(Br)cc2)cc1C1=C(O)C(C)(C)OC(C)(C)C1=O [Compound A-81] | 100
3 | Cc1ccc(-c2ccc(Br)cc2)cc1C1=C(O)C(C)(C)OC(C)(C)C1=O [Compound A-82] | 100
4 | CCOc1ccc(-c2ccc(Cl)cc2Cl)cc1C1=C(O)C(C)(C)OC(C)(C)C1=O [Compound A-87] | 0

Each molecule was assayed on Echinochloa crus-galli (ECHCG) in the same assay as above. Settings: 312 h, rate 250 g/ha, evaluated after 13 days, read-out: Post-emergence activity ECHCG (100=total damage to plant; 0=no damage to plant).
Format: in vivo
How it was run: as §1

Row | Structure (SMILES) | pest or weed control at 250 g/ha [%]
5 | CCc1ccc(-c2ccc(Cl)cc2)cc1C1=C(O)[C@@]2(CC)CC[C@H](O2)C1=O [Compound A-79] | 100
6 | CCc1ccc(-c2ccc(Br)cc2)cc1C1=C(O)C(C)(C)OC(C)(C)C1=O [Compound A-81] | 100
7 | Cc1ccc(-c2ccc(Br)cc2)cc1C1=C(O)C(C)(C)OC(C)(C)C1=O [Compound A-82] | 100
8 | CCOc1ccc(-c2ccc(Cl)cc2Cl)cc1C1=C(O)C(C)(C)OC(C)(C)C1=O [Compound A-87] | 80

These molecules were tested on Alopecurus myosuroides (ALOMY) in the same assay as above. Settings: 312 h, rate 250 g/ha, evaluated after 13 days, read-out: Post-emergence activity ALOMY (100=total damage to plant; 0=no damage to plant).
Format: in vivo
How it was run: as §1

Row | Structure (SMILES) | pest or weed control at 250 g/ha [%]
9 | CCc1ccc(-c2ccc(Cl)cc2)cc1C1=C(O)[C@@]2(CC)CC[C@H](O2)C1=O [Compound A-79] | 80
10 | CCc1ccc(-c2ccc(Br)cc2)cc1C1=C(O)C(C)(C)OC(C)(C)C1=O [Compound A-81] | 100
11 | Cc1ccc(-c2ccc(Br)cc2)cc1C1=C(O)C(C)(C)OC(C)(C)C1=O [Compound A-82] | 100
12 | CCOc1ccc(-c2ccc(Cl)cc2Cl)cc1C1=C(O)C(C)(C)OC(C)(C)C1=O [Compound A-87] | 10

Each molecule was assayed on Amaranthus retroflexus (AMARE) in the same assay as above. Settings: 312 h, rate 250 g/ha, evaluated after 13 days, read-out: Post-emergence activity AMARE (100=total damage to plant; 0=no damage to plant).
Format: in vivo
How it was run: as §1

Row | Structure (SMILES) | pest or weed control at 250 g/ha [%]
13 | CCc1ccc(-c2ccc(Cl)cc2)cc1C1=C(O)[C@@]2(CC)CC[C@H](O2)C1=O [Compound A-79] | 0
14 | CCc1ccc(-c2ccc(Br)cc2)cc1C1=C(O)C(C)(C)OC(C)(C)C1=O [Compound A-81] | 0
15 | Cc1ccc(-c2ccc(Br)cc2)cc1C1=C(O)C(C)(C)OC(C)(C)C1=O [Compound A-82] | 0
16 | CCOc1ccc(-c2ccc(Cl)cc2Cl)cc1C1=C(O)C(C)(C)OC(C)(C)C1=O [Compound A-87] | 0

These molecules were tested on Setaria faberi (SETFA) in the same assay as above. Settings: 312 h, rate 250 g/ha, evaluated after 13 days, read-out: Post-emergence activity SETFA (100=total damage to plant; 0=no damage to plant).
Format: in vivo
How it was run: as §1

Row | Structure (SMILES) | pest or weed control at 250 g/ha [%]
17 | CCc1ccc(-c2ccc(Cl)cc2)cc1C1=C(O)[C@@]2(CC)CC[C@H](O2)C1=O [Compound A-79] | 100
18 | CCc1ccc(-c2ccc(Br)cc2)cc1C1=C(O)C(C)(C)OC(C)(C)C1=O [Compound A-81] | 100
19 | Cc1ccc(-c2ccc(Br)cc2)cc1C1=C(O)C(C)(C)OC(C)(C)C1=O [Compound A-82] | 100
20 | CCOc1ccc(-c2ccc(Cl)cc2Cl)cc1C1=C(O)C(C)(C)OC(C)(C)C1=O [Compound A-87] | 80

The molecules below were run on Avena fatua (AVEFA) (assay: Example B pre-emergence herbicidal activity, glasshouse pot test). Settings: 312 h, rate 250 g/ha, evaluated after 13 days, read-out: Pre-emergence activity AVEFA (100=total damage to plant; 0=no damage to plant).
Format: in vivo
How it was run: as §1

Row | Structure (SMILES) | pest or weed control at 250 g/ha [%]
21 | CCc1ccc(-c2ccc(Cl)cc2)cc1C1=C(O)[C@@]2(CC)CC[C@H](O2)C1=O [Compound A-79] | 40
22 | CCc1ccc(-c2ccc(Br)cc2)cc1C1=C(O)C(C)(C)OC(C)(C)C1=O [Compound A-81] | 90
23 | Cc1ccc(-c2ccc(Br)cc2)cc1C1=C(O)C(C)(C)OC(C)(C)C1=O [Compound A-82] | 90
24 | CCOc1ccc(-c2ccc(Cl)cc2Cl)cc1C1=C(O)C(C)(C)OC(C)(C)C1=O [Compound A-87] | 0

The molecules below were run on Echinochloa crus-galli (ECHCG) in the same assay as above. Settings: 312 h, rate 250 g/ha, evaluated after 13 days, read-out: Pre-emergence activity ECHCG (100=total damage to plant; 0=no damage to plant).
Format: in vivo
How it was run: as §1

Row | Structure (SMILES) | pest or weed control at 250 g/ha [%]
25 | CCc1ccc(-c2ccc(Cl)cc2)cc1C1=C(O)[C@@]2(CC)CC[C@H](O2)C1=O [Compound A-79] | 80
26 | CCc1ccc(-c2ccc(Br)cc2)cc1C1=C(O)C(C)(C)OC(C)(C)C1=O [Compound A-81] | 100
27 | Cc1ccc(-c2ccc(Br)cc2)cc1C1=C(O)C(C)(C)OC(C)(C)C1=O [Compound A-82] | 100
28 | CCOc1ccc(-c2ccc(Cl)cc2Cl)cc1C1=C(O)C(C)(C)OC(C)(C)C1=O [Compound A-87] | 0

The molecules below were run on Alopecurus myosuroides (ALOMY) in the same assay as above. Settings: 312 h, rate 250 g/ha, evaluated after 13 days, read-out: Pre-emergence activity ALOMY (100=total damage to plant; 0=no damage to plant).
Format: in vivo
How it was run: as §1

Row | Structure (SMILES) | pest or weed control at 250 g/ha [%]
29 | CCc1ccc(-c2ccc(Cl)cc2)cc1C1=C(O)[C@@]2(CC)CC[C@H](O2)C1=O [Compound A-79] | 40
30 | CCc1ccc(-c2ccc(Br)cc2)cc1C1=C(O)C(C)(C)OC(C)(C)C1=O [Compound A-81] | 80
31 | Cc1ccc(-c2ccc(Br)cc2)cc1C1=C(O)C(C)(C)OC(C)(C)C1=O [Compound A-82] | 80
32 | CCOc1ccc(-c2ccc(Cl)cc2Cl)cc1C1=C(O)C(C)(C)OC(C)(C)C1=O [Compound A-87] | 0

What follows are molecules tested on Amaranthus retroflexus (AMARE) in the same assay as above. Settings: 312 h, rate 250 g/ha, evaluated after 13 days, read-out: Pre-emergence activity AMARE (100=total damage to plant; 0=no damage to plant).
Format: in vivo
How it was run: as §1

Row | Structure (SMILES) | pest or weed control at 250 g/ha [%]
33 | CCc1ccc(-c2ccc(Cl)cc2)cc1C1=C(O)[C@@]2(CC)CC[C@H](O2)C1=O [Compound A-79] | 0
34 | CCc1ccc(-c2ccc(Br)cc2)cc1C1=C(O)C(C)(C)OC(C)(C)C1=O [Compound A-81] | 0
35 | Cc1ccc(-c2ccc(Br)cc2)cc1C1=C(O)C(C)(C)OC(C)(C)C1=O [Compound A-82] | 20
36 | CCOc1ccc(-c2ccc(Cl)cc2Cl)cc1C1=C(O)C(C)(C)OC(C)(C)C1=O [Compound A-87] | 0

What follows are molecules tested on Setaria faberi (SETFA) in the same assay as above. Settings: 312 h, rate 250 g/ha, evaluated after 13 days, read-out: Pre-emergence activity SETFA (100=total damage to plant; 0=no damage to plant).
Format: in vivo
How it was run: as §1

Row | Structure (SMILES) | pest or weed control at 250 g/ha [%]
37 | CCc1ccc(-c2ccc(Cl)cc2)cc1C1=C(O)[C@@]2(CC)CC[C@H](O2)C1=O [Compound A-79] | 100
38 | CCc1ccc(-c2ccc(Br)cc2)cc1C1=C(O)C(C)(C)OC(C)(C)C1=O [Compound A-81] | 100
39 | Cc1ccc(-c2ccc(Br)cc2)cc1C1=C(O)C(C)(C)OC(C)(C)C1=O [Compound A-82] | 90
40 | CCOc1ccc(-c2ccc(Cl)cc2Cl)cc1C1=C(O)C(C)(C)OC(C)(C)C1=O [Compound A-87] | 0
